One assay deals with CK2. The conditions noted are these: ATP competitive; read-out: CK2 inhibition IC50; cited from earlier work.
Assay [1] has as its system human prostate tumor cell line. On the set-up: method as in PMID 39698287. The conditions noted are these: cited from earlier work.
Another assay relates to CK2α/CK2β interaction. The conditions noted are these: read-out: Inhibition of CK2α/CK2β interaction IC50; cited from earlier work.
The test system of another assay is CK2α subunit. On the set-up: method as in PMID 18553057. The conditions noted are these: read-out: Inhibition of the kinase activity of the CK2α subunit IC50; cited from earlier work.
In another assay the target is T1, CK2 holoenzyme (CK2α2β2) (Homo sapiens, UniProt P68400).
T1 construct: made in house; host or cells: E. coli BL21(DE3)
T1 sequence (P68400 whole entry): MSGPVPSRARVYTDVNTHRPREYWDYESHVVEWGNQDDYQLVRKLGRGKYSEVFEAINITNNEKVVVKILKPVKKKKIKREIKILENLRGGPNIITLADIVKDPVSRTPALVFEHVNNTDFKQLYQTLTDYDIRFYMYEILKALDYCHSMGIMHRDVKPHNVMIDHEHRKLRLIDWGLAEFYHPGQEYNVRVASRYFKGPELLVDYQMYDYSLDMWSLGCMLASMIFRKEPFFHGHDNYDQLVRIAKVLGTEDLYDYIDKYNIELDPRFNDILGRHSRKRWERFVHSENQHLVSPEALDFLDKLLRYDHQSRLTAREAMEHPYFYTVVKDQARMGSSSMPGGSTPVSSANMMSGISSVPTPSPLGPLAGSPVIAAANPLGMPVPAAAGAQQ
The assay is described as follows: Capillary electrophoresis assay, inhibition of the CK2 holoenzyme kinase activity. Type of assay: biochemical. The protocol:
The inhibition of the catalytic activity of the CK2 holoenzyme (CK2α2β2) was determined in an enzyme assay. In brief, the CK2 holoenzyme was incubated with the decapeptide […] and ATP. The amount of phosphorylated peptide (Ser7) was recorded by capillary electrophoresis (CE).
The capillary electrophoresis assay to determine the inhibition of the CK2 holoenzyme (CK2α2β2) was performed as described in refs. [40, 46]. The CK2 holoenzyme was recombinantly expressed in E. coli BL21(DE3) and purified according to the protocol by Grankowski et al.. Enzymatic activity was determined in the presence of 1 µg of CK2α2β2, 60 µM of ATP, and 114 µM of the substrate peptide […]. The assay buffer contained 60 mM NaCl and 10 mM MgCl2. Inhibition was determined in three independent experiments at a compound concentration of 10 µM, and the mean value and the standard deviation (SD) were calculated.

The target of assay [2] is T2, CK2α/CK2β interaction (human CK2α1–335, human CK2β1–193) (Homo sapiens, UniProt P68400).
T2 construct: human CK2α^1–335; made in house
T2 sequence (P68400 1-335): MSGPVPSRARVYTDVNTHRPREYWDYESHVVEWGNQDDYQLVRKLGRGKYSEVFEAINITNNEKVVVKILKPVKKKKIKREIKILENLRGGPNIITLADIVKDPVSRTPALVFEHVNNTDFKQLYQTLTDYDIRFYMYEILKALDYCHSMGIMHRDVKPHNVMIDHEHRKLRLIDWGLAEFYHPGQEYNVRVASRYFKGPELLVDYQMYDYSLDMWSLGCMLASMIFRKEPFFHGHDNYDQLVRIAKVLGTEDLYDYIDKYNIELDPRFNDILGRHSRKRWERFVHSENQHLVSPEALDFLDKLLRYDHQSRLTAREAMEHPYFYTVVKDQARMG
The assay is described as follows: Microscale thermophoresis (MST) assay of the CK2α/CK2β subunit interaction. It counts as binding. The protocol: A microscale thermophoresis (MST) assay was used to determine the interaction of the CK2α and CK2β subunits. In this assay, a constant concentration of the fluorescently labeled CK2β subunit was added to increasing concentrations of the CK2α subunit and the thermophoretic shift was recorded, respectively. […] The same experiment was performed in the presence of 20, 50, or 100 µM of the test compounds (see Table 1). An increased KD′ value in the presence of the test compounds was evaluated as the inhibition of the association of the CK2α and CK2β subunits. The increased KD′ value was then transformed together with the employed concentration of the test compound into the Ki value for the inhibition of the CK2α/CK2β association (formula see Supporting Information).
The compounds were investigated at a final concentration of 20, 50, or 100 µM. […] Data analysis and statistical evaluation were conducted with GraphPad Prism v.6 for Windows (GraphPad Software, La Jolla, CA, USA, www.graphpad.com).

Counter-ions that a name gives are not always drawn.

On to `O=C1CCc2c(oc3cc(Br)c(O)c(Br)c23)/C1=C/Nc1ccccc1` [2b], for which the IC50 in the assay with CK2 was 0.0058 µM. Further, the Antiproliferative activity entry in assay [1] is given as “showed antiproliferative activity”.

With `COc1cc([C@H]2c3c([nH]c4ccccc34)[C@@H](C(=O)N3C(=O)OC[C@@H]3Cc3ccccc3)[C@H]3C(=O)OC(=O)[C@@H]23)cc(OC)c1OC` [(+)-4 (W16)], the IC50 in the assay with CK2α/CK2β interaction was […]; with CK2α subunit it was 20 µM.

At CK2 holoenzyme (CK2α2β2) (CE assay, 60 µM ATP, 114 µM peptide […]), `COC(=O)[C@H](Cc1c[nH]cn1)NC(=O)[C@H]1c2[nH]c3ccccc3c2[C@H](c2cc(OC)c(OC)c(OC)c2)[C@@H]2C(=O)NC(=O)[C@@H]21` [(+)-20a, Methyl N-{[(3aS,4R,10S,10aS)-1,3-dioxo-10-(3,4,5-trimethoxyphenyl)-1,2,3,3a,4,5,10,10a-octahydropyrrolo[3,4-b]carbazol-4-yl]carbonyl}-(S)-histidinate∙HCl] showed an IC50 of 2.5 µM. Moreover, the inhibition at 10 µM on CK2 holoenzyme (CK2α2β2) (first screening, test compound concentration 10 µM, read-out: Enzyme inhibition of CK2 holoenzyme) was more than 50%. Also, the dissociation constant (Kd) in assay [2] stood at 0.101 ± 0.004 µM. Moreover, the Ki in assay [2] (MST, global analysis, KD′ = KD [1 + (ccompound/Ki)], n.s. = KD′ not significantly different from KD, read-out: Inhibition of CK2α/CK2β Interaction Ki) worked out at 6.1 µM.

The values above are taken from publication PMC11722180, “Structure–Activity Relationship Studies of Tetracyclic Pyrrolocarbazoles Inhibiting Heterotetrameric Protein Kinase CK2” (Molecules, 2024).
